Measured values published in US20110052570A1, “METHOD TO PROGNOSE RESPONSE TO ANTI-EGFR THERAPEUTICS” (CHILDREN'S MEDICAL CENTER CORPORATION, priority 2005, published 2011).
Entries after “also recorded” stand apart in the source; their conditions may differ. Values belong to the molecule of their own block, whether it stands above or below them.

Experiments:
EGFR = target: T1, EGFR (Mus musculus, UniProt Q01279); assay: EGFR phosphorylation by immunoprecipitation / western blotting in endothelial cells; format: cell-based; details: for ligand-induced EGFR phosphorylation / activation: serum starved A375SM tumor EC, ligand 100 ng/ml
T1 construct: endogenous in cells; host or cells: mouse tumour EC isolated from A375SM melanoma, MDA-MB-231 breast carcinoma and liposarcoma xenografts; mouse skin EC as control
Description: Immunoprecipitation (IP) and western blotting (WB). […] Cells were also treated with the EGFR kinase inhibitor, AG1478 (Calbiochem, San Diego, Calif.), prepared in DMSO, fifteen minutes prior to growth factor stimulation. Immunoprecipitation (IP) and western blotting (WB) were performed as previously described (16). […] Receptor phosphorylation was detected using anti-phosphotyrosine antibody (mAb 4G10; Upstate, Lake Placid, N.Y.). […] In addition antibodies to GAPDH (Chemicon, Temecula, Calif.), (β-Actin (Sigma-Aldrich, St Louis, Mo.), phospho-Erk1-2 (New England Biolab, Beverly Mass.), and Erk1 (Santa Cruz Biotechnology) were purchased.

[1] = tested on: A375SM tumor EC (melanoma EC); assay: MTT cell proliferation assay, tumor EC; format: cell-based, mouse
Description: (§1) Cell proliferation. Cells (4×103) were plated in triplicates into 96 well plates and allowed to adhere overnight. The cells were then switched to serum free media containing growth factors and/or AG1478 at indicated concentrations. Cells were cultured for 72 hr and cell proliferation was determined by addition of 0.42 mg/ml of 3-(4,5-dimethylthiazol-2-yl)-2,5-diphenyltetrazolium bromide (MTT) reagent (Sigma-Aldrich) for 4 hr prior to harvesting. Media was removed and cells were solubilized in DMSO and absorbance was measured at 570 nm. The averages of the triplicates were calculated and cell proliferation was determined as the percentage of absorbance of treated cells to the untreated cells. All the experiments were at least performed twice.

[2] = tested on: A375SM melanoma xenograft; assay: A375SM melanoma xenograft model in nude mice; format: in vivo, mouse; details: EGFR-negative A375SM xenografts in mice, daily treatment, 4 weeks
Description: A375SM melanoma tumor cells were injected subcutaneously into nude mice. When the tumors reached an average volume of 200 mm^3 the mice were randomized into a control and Iressa treatment groups. The mice were treated daily p.o. with gefitinib (150 mg/kg) or with the vehicle. Tumor volumes were measured every 4 days.

ErbB2 = ErbB2 phosphorylation by immunoprecipitation / western blotting in endothelial cells; format: cell-based, mouse
Description: (§2) Immunoprecipitation (IP) and western blotting (WB). […] Cells were also treated with the EGFR kinase inhibitor, AG1478 (Calbiochem, San Diego, Calif.), prepared in DMSO, fifteen minutes prior to growth factor stimulation. Immunoprecipitation (IP) and western blotting (WB) were performed as previously described (16). The antibodies used for IP and WB of ErbB1-4 were: SC-03, SC-284, SC-285, and SC-283 respectively (Santa Cruz Biotechnology, Santa Cruz, Calif.). Receptor phosphorylation was detected using anti-phosphotyrosine antibody (mAb 4G10; Upstate, Lake Placid, N.Y.). Analysis of phosphorylated—EGFR on lysates was performed using phospho-1068 EGFR (Cell Signaling Technologies, Beverly Mass.). In addition antibodies to GAPDH (Chemicon, Temecula, Calif.), (β-Actin (Sigma-Aldrich, St Louis, Mo.), phospho-Erk1-2 (New England Biolab, Beverly Mass.), and Erk1 (Santa Cruz Biotechnology) were purchased.

Erk1/2 = Erk1/2 (MAPK) phosphorylation by western blotting in endothelial cells; format: cell-based, mouse
Description: as §2

skin EC = assay: MTT cell proliferation assay, skin EC; format: cell-based, mouse; details: increasing EGF
Description: as §1

[3] = target: ErbB3 on mouse skin endothelial cells (skin EC) (mouse) (UniProt Q61526); assay: cell-based or functional assay

Molecule: COc1cc2ncnc(Nc3cccc(Cl)c3)c2cc1OC [AG1478, 4-(3-Chloroanillino)-6,7-dimethoxyquinazoline, reference compound]
effect on EGF-induced phosphorylation of EGFR (EGFR; skin EC, inhibitor pretreatment, then EGF 100 ng/ml): had no effect on skin EC
inhibition of EGF-induced phosphorylation of EGFR (EGFR; tumor EC (A375SM melanoma EC), inhibitor pretreatment, then EGF 100 ng/ml): inhibited EGF-induced phosphorylation of EGFR in tumor EC in a dose-dependent manner; also recorded: inhibits EGFR activation on melanoma EC
inhibition of EGF-induced increase in tumor EC cell proliferation ([1]; inhibitor at 1 μM, increasing EGF, MTT 72 hr): completely inhibit
inhibition of EGF-induced tumor EC proliferation ([1]; tumor (melanoma) EC, concentration not stated / dose dependent): completely inhibits EGF dependent proliferation

Molecule: COc1cc2ncnc(Nc3ccc(F)c(Cl)c3)c2cc1OCCCN1CCOCC1 [Iressa, Gefitinib]
effect on tumor growth (in words) [2]: inhibits EGFR negative A375SM melanoma xenograph growth
effect on tumor growth (in words) ([2]; listed as geftinib): effective against EGFR-negative tumors in mice

Molecule: EGF: epidermal growth factor, ligand that binds only to EGFR
EGF-induced ErbB2 phosphorylation (p-ErbB2) (ErbB2; A375SM tumor EC): increased ErbB2 phosphorylation (p-ErbB2) in tumor EC
ErbB2 activation in response to EGF (ErbB2; MDA-MB-231 breast carcinoma EC): ErbB2 was also activated
ErbB2 activation in response to EGF (ErbB2; liposarcoma EC): ErbB2 was also activated
phospho-Erk1/2 levels in the presence of EGF (Erk1/2; A375SM tumor EC): increase in phospho-Erk1/2 levels
MAPK activation by EGF (Erk1/2; MDA-MB-231 breast carcinoma EC): subsequent MAPK activation
MAPK activation by EGF (Erk1/2; liposarcoma EC): subsequent MAPK activation
increase in cell proliferation ([1]; tumor EC, 20 ng/ml of EGF, MTT): 2.5 fold
effect on cell proliferation (in words) ([1]; tumor EC, increasing EGF, MTT): dose-dependent increase in cell proliferation
effect on cell proliferation (in words) (skin EC): did not respond to EGF

Results, then the molecule that gave them:

ligand-induced EGFR phosphorylation / activation (EGFR): promoted EGFR activation in tumor EC
Molecule: BTC: betacellulin, binds EGFR and ErbB4

ligand-induced EGFR phosphorylation / activation (EGFR): promoted EGFR activation in tumor EC
Molecule: HB-EGF: Heparin binding-EGF like growth factor, binds EGFR and ErbB4

growth inhibition (MTT assay) of skin EC at 5 ng/ml (0.2 nM) NRG1β [3]: 25%
Molecule: NRG1β extra-cellular domain (R&D Systems) (ligand)

ligand-induced EGFR phosphorylation / activation (EGFR): promoted EGFR activation in tumor EC
Molecule: TGFα: transforming growth factor-alpha, EGFR ligand
